This is an account of results in PMC7939381, “MMP activation–associated aminopeptidase N reveals a bivalent 14-3-3 binding motif” (The Journal of Biological Chemistry, 2021).

Where a SMILES comes first, the peptide text is derived from it. [ ]: non-standard residue; d: D form. pT = C[C@@H](OP(=O)(O)O)[C@H](N)C(=O)O; pS = N[C@@H](COP(=O)(O)O)C(=O)O

Assay [1] deals with T1, 14-3-3η (Homo sapiens, UniProt Q04917).
T1 construct: N-terminally His6-tagged 14-3-3 full-length proteins were expressed with heterologous bacterial expression; made in house
T1 sequence (Q04917 1-246): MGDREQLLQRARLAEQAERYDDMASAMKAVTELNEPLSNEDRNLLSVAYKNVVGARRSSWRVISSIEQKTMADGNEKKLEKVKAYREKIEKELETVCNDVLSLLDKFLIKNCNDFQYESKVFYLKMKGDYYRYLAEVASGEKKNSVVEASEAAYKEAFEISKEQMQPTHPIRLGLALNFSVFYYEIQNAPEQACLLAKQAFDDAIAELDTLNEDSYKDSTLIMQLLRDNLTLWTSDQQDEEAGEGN
The experiment in a line: isothermal titration calorimetry (ITC) with 14-3-3η. It is filed as binding. The conditions noted are these: 500 μM protein titrated to 50 μM peptide, 25 °C; Fig. S8. As for the experimental part: The ITC experiments were performed on an automated MicroCal iTC200 (Malvern Panalytical). To prepare 14-3-3 proteins for ITC measurements, a buffer exchange to ITC buffer (50 mM HEPES, pH 7.4, 250 mM NaCl, 20 mM MgCl2) was performed on a Superdex 75 10/300 GL column (ÄKTA Pure FPLC system, GE Healthcare). For peptides 1, 7, and 17, a 500 μM solution of protein was titrated to a 50 μM solution of peptide in 18 steps (2-μl volume in 4 s, 180-s spacing) at 25 °C. For peptide 11, a 250 μM solution of protein was titrated to a 12.5 μM solution of peptide with the settings mentioned before. The reference power was set to […], and the stirring speed was set to 750 rpm. Analysis was performed using MicroCal ITC-ORIGIN analysis software.
For orientation: ITC needs no label: the signal is the heat of the interaction.

The target in assay [2] is T1, 14-3-3η. The experiment in a line: direct binding FP assay, 14-3-3η. The conditions noted are these: FITC-labeled peptide; FP buffer pH 7.4; 60 min room temperature; mean ± S.D., n = 3; values for 14-16 are estimated (Fig. S4); read-out: KD toward 14-3-3η (FP assay). The protocol: For the FP assay, the 14-3-3 proteins were diluted to a protein-specific start concentration in FP buffer (10 mM HEPES, pH 7.4, 150 mM NaCl, 2 mM DTT, 0.01% Tween 20). DMSO stocks of peptides were diluted in FP buffer to a concentration of 30 nM. For the assay, 10 μl of FP buffer were pipetted in 20 wells of a 384-well Corning black round bottom plate. A dilution series with 10 μl of protein solution was performed, and 5 μl of peptide solution was added to each well for a final volume of 15 μl. The plate was incubated for 60 min at room temperature. Measurement was performed at 25 °C in a Tecan Spark20M plate reader (λex = 470 nm, λem = 525 nm). Data analysis was performed with GraphPad Prism (version 5.03), and KD values were determined via a nonlinear regression fit of dose-response curves with variable slope (four parameters).

With “17: APN 36–73 pThr^63 peptide [compound 17]”, the “ITC result with 14-3-3η (in words)” value in assay [1] is “no heat change could be observed”.

Take `CC(C)C[C@H](NC(=O)[C@@H](NC(=O)[C@@H](NC(=O)[C@H](C)NC(=O)[C@H](COP(=O)(O)O)NC(=O)[C@H](C)NC(=O)[C@@H]1CCCN1C(=O)[C@H](CC(N)=O)NC(=O)[C@@H](NC(=O)[C@@H](NC(=O)[C@H](C)NC(=O)[C@H](CO)NC(=O)[C@H](C)NC(=O)[C@H](CO)NC(=O)[C@@H]1CCCN1C(=O)[C@@H](NC(=O)[C@@H](NC(=O)[C@H](CO)NC(=O)[C@H](C)NC(=O)[C@@H](NC(=O)[C@@H]1CCCN1C(=O)[C@H](CO)NC(=O)[C@H](COP(=O)(O)O)NC(=O)[C@H](CC(N)=O)NC(=O)[C@H](C)NC(=O)[C@H](CC(N)=O)NC(=O)[C@H](CCCCN)NC(=O)[C@H](CC(N)=O)NC(=O)[C@H](CCCCN)NC(=O)[C@@H](N)CCC(=O)O)C(C)C)[C@@H](C)O)[C@@H](C)O)[C@@H](C)O)[C@@H](C)O)[C@@H](C)O)[C@@H](C)O)C(=O)N[C@@H](CC(=O)O)C(=O)N[C@@H](CCC(N)=O)C(=O)N[C@@H](CO)C(=O)N[C@@H](CCCCN)C(=O)N[C@@H](C)C(=O)N[C@@H](Cc1c[nH]c2ccccc12)C(=O)N[C@@H](CC(N)=O)C(=O)N[C@@H](CCCNC(=N)N)C(=O)O` [compound 10] (H-EKNKNAN[pS]SPVASTTPSASATTNPA[pS]ATTLDQSKAWNR-OH): the equilibrium dissociation constant (Kd) in assay [2] is 0.42 ± 0.03 µM.

As to `CC(C)C[C@H](NC(=O)[C@@H](NC(=O)[C@@H](NC(=O)[C@H](C)NC(=O)[C@H](CO)NC(=O)[C@H](C)NC(=O)[C@@H]1CCCN1C(=O)[C@H](CC(N)=O)NC(=O)[C@@H](NC(=O)[C@@H](NC(=O)[C@H](C)NC(=O)[C@H](CO)NC(=O)[C@H](C)NC(=O)[C@H](CO)NC(=O)[C@@H]1CCCN1C(=O)[C@@H](NC(=O)[C@@H](NC(=O)[C@H](CO)NC(=O)[C@H](C)NC(=O)[C@@H](NC(=O)[C@@H]1CCCN1C(=O)[C@H](CO)NC(=O)[C@H](COP(=O)(O)O)NC(=O)[C@H](CC(N)=O)NC(=O)[C@H](C)NC(=O)[C@H](CC(N)=O)NC(=O)[C@H](CCCCN)NC(=O)[C@H](CC(N)=O)NC(=O)[C@H](CCCCN)NC(=O)[C@@H](N)CCC(=O)O)C(C)C)[C@@H](C)O)[C@@H](C)O)[C@@H](C)O)[C@@H](C)OP(=O)(O)O)[C@@H](C)O)[C@@H](C)O)C(=O)N[C@@H](CC(=O)O)C(=O)N[C@@H](CCC(N)=O)C(=O)N[C@@H](CO)C(=O)N[C@@H](CCCCN)C(=O)N[C@@H](C)C(=O)N[C@@H](Cc1c[nH]c2ccccc12)C(=O)N[C@@H](CC(N)=O)C(=O)N[C@@H](CCCNC(=N)N)C(=O)O` [compound 9] (H-EKNKNAN[pS]SPVASTTPSASAT[pT]NPASATTLDQSKAWNR-OH), the Kd in assay [2] is 15 ± 1.5 µM.

Consider `CC(C)C[C@H](NC(=O)[C@@H](NC(=O)[C@@H](NC(=O)[C@H](C)NC(=O)[C@H](CO)NC(=O)[C@H](C)NC(=O)[C@@H]1CCCN1C(=O)[C@H](CC(N)=O)NC(=O)[C@@H](NC(=O)[C@@H](NC(=O)[C@H](C)NC(=O)[C@H](CO)NC(=O)[C@H](C)NC(=O)[C@H](CO)NC(=O)[C@@H]1CCCN1C(=O)[C@@H](NC(=O)[C@@H](NC(=O)[C@H](CO)NC(=O)[C@H](C)NC(=O)[C@@H](NC(=O)[C@@H]1CCCN1C(=O)[C@H](CO)NC(=O)[C@H](COP(=O)(O)O)NC(=O)[C@H](CC(N)=O)NC(=O)[C@H](C)NC(=O)[C@H](CC(N)=O)NC(=O)[C@H](CCCCN)NC(=O)[C@H](CC(N)=O)NC(=O)[C@H](CCCCN)NC(=O)[C@@H](N)CCC(=O)O)C(C)C)[C@@H](C)O)[C@@H](C)O)[C@@H](C)O)[C@@H](C)O)[C@@H](C)O)[C@@H](C)O)C(=O)N[C@@H](CC(=O)O)C(=O)N[C@@H](CCC(N)=O)C(=O)N[C@@H](COP(=O)(O)O)C(=O)N[C@@H](CCCCN)C(=O)N[C@@H](C)C(=O)N[C@@H](Cc1c[nH]c2ccccc12)C(=O)N[C@@H](CC(N)=O)C(=O)N[C@@H](CCCNC(=N)N)C(=O)O` [compound 13] (H-EKNKNAN[pS]SPVASTTPSASATTNPASATTLDQ[pS]KAWNR-OH; N-terminus assumed), for which the Kd in assay [2] is greater than 83 µM.

As for `CC(C)C[C@H](NC(=O)[C@@H](NC(=O)[C@@H](NC(=O)[C@H](C)NC(=O)[C@H](CO)NC(=O)[C@H](C)NC(=O)[C@@H]1CCCN1C(=O)[C@H](CC(N)=O)NC(=O)[C@@H](NC(=O)[C@@H](NC(=O)[C@H](C)NC(=O)[C@H](CO)NC(=O)[C@H](C)NC(=O)[C@H](CO)NC(=O)[C@@H]1CCCN1C(=O)[C@@H](NC(=O)[C@@H](NC(=O)[C@H](CO)NC(=O)[C@H](C)NC(=O)[C@@H](NC(=O)[C@@H]1CCCN1C(=O)[C@H](CO)NC(=O)[C@H](COP(=O)(O)O)NC(=O)[C@H](CC(N)=O)NC(=O)[C@H](C)NC(=O)[C@H](CC(N)=O)NC(=O)[C@H](CCCCN)NC(=O)[C@H](CC(N)=O)NC(=O)[C@H](CCCCN)NC(=O)[C@@H](N)CCC(=O)O)C(C)C)[C@@H](C)O)[C@@H](C)O)[C@@H](C)OP(=O)(O)O)[C@@H](C)O)[C@@H](C)O)[C@@H](C)O)C(=O)N[C@@H](CC(=O)O)C(=O)N[C@@H](CCC(N)=O)C(=O)N[C@@H](CO)C(=O)N[C@@H](CCCCN)C(=O)N[C@@H](C)C(=O)N[C@@H](Cc1c[nH]c2ccccc12)C(=O)N[C@@H](CC(N)=O)C(=O)N[C@@H](CCCNC(=N)N)C(=O)O` [compound 8] (H-EKNKNAN[pS]SPVASTTPSASA[pT]TNPASATTLDQSKAWNR-OH), in assay [2], the Kd was 18 ± 2.1 µM.

`CC(C)C[C@H](NC(=O)[C@@H](NC(=O)[C@@H](NC(=O)[C@H](C)NC(=O)[C@H](CO)NC(=O)[C@H](C)NC(=O)[C@@H]1CCCN1C(=O)[C@H](CC(N)=O)NC(=O)[C@@H](NC(=O)[C@@H](NC(=O)[C@H](C)NC(=O)[C@H](CO)NC(=O)[C@H](C)NC(=O)[C@H](CO)NC(=O)[C@@H]1CCCN1C(=O)[C@@H](NC(=O)[C@@H](NC(=O)[C@H](CO)NC(=O)[C@H](C)NC(=O)[C@@H](NC(=O)[C@@H]1CCCN1C(=O)[C@H](CO)NC(=O)[C@H](COP(=O)(O)O)NC(=O)[C@H](CC(N)=O)NC(=O)[C@H](C)NC(=O)[C@H](CC(N)=O)NC(=O)[C@H](CCCCN)NC(=O)[C@H](CC(N)=O)NC(=O)[C@H](CCCCN)NC(=O)[C@@H](N)CCC(=O)O)C(C)C)[C@@H](C)O)[C@@H](C)O)[C@@H](C)O)[C@@H](C)O)[C@@H](C)O)[C@@H](C)OP(=O)(O)O)C(=O)N[C@@H](CC(=O)O)C(=O)N[C@@H](CCC(N)=O)C(=O)N[C@@H](CO)C(=O)N[C@@H](CCCCN)C(=O)N[C@@H](C)C(=O)N[C@@H](Cc1c[nH]c2ccccc12)C(=O)N[C@@H](CC(N)=O)C(=O)N[C@@H](CCCNC(=N)N)C(=O)O` [compound 12] (H-EKNKNAN[pS]SPVASTTPSASATTNPASAT[pT]LDQSKAWNR-OH): the Kd in assay [2] is 0.18 ± 0.01 µM.

As usually defined, the Kd is the constant that tells how readily two partners part at equilibrium.
